In US20210220489A1, “AMYGDALAR NEURAL ENSEMBLE THAT ENCODES THE UNPL[…] PAIN” (The Board of Trustees of the Leland Stanford Junior …, priority 2020, published 2021):

What was measured:
[1] = tested on: neuropathic TRAP^hM4 mice; assay: Neuropathic (spared nerve injury) reflexive and affective-motivational pain behaviors; format: in vivo; settings: day 42 postinjury
Source text: To induce a chronic pain state, we used a modified version of the Spared Nerve Injury (SNI) model of neuropathic pain, as previously described (70). This model entails surgical section of two of the sciatic nerve branches (common peroneal and tibial branches) while sparing the third (sural branch). […] To perform this peripheral nerve injury procedure, anesthesia was induced and maintained throughout surgery with isoflurane (4% induction, 1.5% maintenance in oxygen). The left hind leg was shaved and wiped clean with alcohol and betadine. We made a 1-cm incision in the skin of the mid-dorsal thigh, approximately where the sciatic nerve trifurcates. […] Mice were then returned to their home cage and closely monitored over the following three days for well-being.
We habituated mice inside individual red plastic cylinders (10.16-cm D) on a raised flat, perforated metal platform (60.96-cm H) for 3 days prior to the start of behavioral sensory testing. After basal thermal and mechanical thresholds were measured, mice underwent a peripheral nerve injury surgery (Spared Nerve Injury, SNI; see “Chronic neuropathic pain model” above for details of the surgical procedure). […]

[2] = tested on: ChR2-eYFP+ nociceptor mice; assay: Optical real-time place escape avoidance task; format: in vivo; settings: CNO 10 mg/kg
Source text: To evaluate active avoidance and escape behaviors to optogenetically driven nociception, mice expressing ChR2 in peripheral primary afferent nociceptors freely explored a custom-built two-choice chamber with LED-lit floor panels. A 32×32 LED array (8×8 cm) illuminated half the array in blue light, and the other half in red light (˜0.3 mW/mm^2). A thin glass surface (0.5 cm thick) covered the array floor, upon which we fitted a black plastic chamber (38 cm H) with a center divider wall containing a square passage hole (5-cm D) raised 2.5 cm from the array floor. The entire LED chamber was maintained in a quiet room with low ambient light (˜5 lux). We first placed mice in the red-light chamber and then allowed them to freely explore the chambers for 15 min. A camera placed above the chamber recorded the location of the mouse in the apparatus. We manually scored the videos to determine the time spent by the mouse in each chamber (automated tracking was not possible given the light from the LED floor). Only one mouse was present in the room during all trials.

C[N+]1([O-])CCN(C2=Nc3cc(Cl)ccc3Nc3ccccc32)CC1 [CNO, clozapine-N-oxide]
reflexive hypersensitivity [1]: did not alter
neuropathic affective-motivational behaviors ([1]; regardless of stimulus intensity or modality): profound decrease
aversion to the noxious blue light chamber [2]: eliminated the aversion
